tested on: Arachidonoylethanolamide Transport (AEAT); assay: Cellular uptake of [3H]-AEA (inhibition of AEA transport); type: cell-based; conditions: Homo sapiens, U-937, 0.25 h; U937 cells; 100 nM AEA, 15 min, 37°C
Protocol: C. Cellular uptake of [^3H]-AEA
Human lymphoma U937 cells were grown in RPMI 1640 medium (Invitrogen, Basel, Switzerland) supplemented with 10% fetal bovine serum, […] fungizone (amphotericin B), 100 units/ml penicillin, 100 µg/ml streptomycin, and 2 mM L-glutamine (all from Invitrogen) and selected for the cellular AEA uptake assay. 2.5 x 10^6 cells were collected and suspended in 250 µL of RPMI 1640 medium (Invitrogen, Basel, Switzerland) at 37°C using glass silanized vials. Cells were pre-incubated 15 min at 37°C in presence of test compounds in a concentration range of 10^-11 - 10^-5 M or in presence of the same amount (5 µl) of vehicle control (DMSO). Then a mixture of 0.5 nM [^3H]-AEA (60 Ci/mmol) (American Radiolabeled Chemicals, Inc., San Louis, MO, US) and 99.5 nM of nonradioactive AEA (Tocris Cookson Ltd., Bristol, UK) resulting in a final concentration of 100 nM AEA was added and samples were incubated at 37°C for another 15 minutes. The reaction was stopped by rapid filtration over UniFilter®-96 GF/C (Perkin Elmer, Boston MA, US) pre-soaked with PBS 0.25 % BSA (w/v). Cells were washed three times with ice-cold PBS buffer containing 1% fatty acid free BSA (137 mM NaCl, 2.7 mM KCl, 10 mM Na2HPO4, 1.76 mM KH2PO4, 1% BSA fatty acid free, pH 7.4), dried and 40 µL MicroScint 20 scintillation cocktail (Perkin Elmer, Waltham, MA, US) was added. Radioactivity was measured using a Perkin Elmer 1450 Microbeta TRILUX liquid scintillation counter. Results were expressed as % of AEA uptake versus cells treated with solvent and the EC50 and IC50 values were calculated from the sigmoidal curves, which were generated using the GraphPad Prism 5.0 (GraphPad Software, San Diego, CA, US). Table 2: Inhibition of Arachidonoylethanolamide Transport (AEAT) (Determination as Described in Biological Assays C)

| SMILES | EC50 [nM] |
| --- | --- |
| CCCCCOC/C=C/C=C/CNC(=O)OCc1ccncc1 [Example 1] | 147 |
| CCCCCOC/C=C/C=C/CNC(=O)NCCc1ccc(O)c(O)c1 [Example 3] | 6 |
| CCCCOCC/C=C/C=C/CNC(=O)OCc1cc(C(=O)OCC)no1 [Example 9] | 3 |
| CCCCOCC/C=C/C=C/CNC(=O)OCc1cc(C(=O)N(C)C)no1 [Example 12] | 6 |
| CCCCOCC/C=C/C=C/CNC(=O)OCc1cc(C(=O)NC)no1 [Example 13] | 0.573 |
| CCCCOCC/C=C/C=C/CN(C)C(=O)OCc1cc(C(=O)OCC)no1 [Example 14] | 286 |
| CCCCOCC/C=C/C=C/CN(C)C(=O)OCc1cc(C(N)=O)no1 [Example 15] | 70 |
| CCCCOCC/C=C/C=C/CN(C)C(=O)OCc1cc(C(=O)NC)no1 [Example 16] | 7 |
| CCCCOCC/C=C/C=C/CN(C)C(=O)OCc1cc(C(=O)N(C)C)no1 [Example 17] | 81 |
| CCCCOCC/C=C/C=C/CNC(=O)OCc1cc(C(N)=O)no1 [Example 18] | 9 |

From patent publication EP2666766A1, “Novel E,E-diene compounds and their use as medicaments and cosmetics” (Dr. August Wolff GmbH & Co. KG Arzneimittel, priority 2012, dated 2013)
